# Source: PMC9745132, “Visualization of real-time receptor endocytosis in dopamine neurons enabled by NTSR1-Venus knock-in mice” (Frontiers in Cellular Neuroscience, 2022)
# “And” between values parts separate entries of the source, which are not always exact repeats. Identical values can stand only once. Counter-ions that a name gives are not always drawn. Like-named read-outs stand apart in the source and are kept apart here. *1 amine or outer side, *2 acyl side, *3 side chain or, on linkers, in order; H or OH if unused. Where a SMILES comes first, the peptide text is derived from it. [ ]: non-standard residue; d: D form. X1 = NCCCC[C@H](N)CN([C@@H](CCCCN)C(=O)[*:2])[*:1]; Tle = CC(C)(C)[C@H](N)C(=O)O
# How the values were obtained:
# NTSR1-RlucII = target: T1, NTSR1-RlucII (Mus musculus, UniProt O88319); test: NTSR1-RlucII internalization ebBRET assay (NTSR1-RlucII donor, rGFP-CAAX acceptor) in HEK293 cells; format: cell-based
# T1 construct: expressed in transfected cells; host or cells: HEK293 (HEK293SL)
# T1 sequence (O88319 whole entry): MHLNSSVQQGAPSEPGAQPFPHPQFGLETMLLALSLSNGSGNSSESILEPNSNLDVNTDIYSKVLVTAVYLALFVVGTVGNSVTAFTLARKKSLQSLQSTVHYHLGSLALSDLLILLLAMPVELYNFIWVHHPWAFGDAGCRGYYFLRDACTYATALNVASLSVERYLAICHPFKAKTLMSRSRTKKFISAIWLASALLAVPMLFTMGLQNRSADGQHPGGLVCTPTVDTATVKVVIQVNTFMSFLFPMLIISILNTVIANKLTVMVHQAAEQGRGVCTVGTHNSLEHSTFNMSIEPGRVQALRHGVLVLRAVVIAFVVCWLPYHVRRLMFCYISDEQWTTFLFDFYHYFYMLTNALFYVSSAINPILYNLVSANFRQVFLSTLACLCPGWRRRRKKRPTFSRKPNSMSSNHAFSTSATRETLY
# Protocol: Cells were maintained in Dulbecco’s Modified Eagle Medium (DMEM, Wisent, Saint-Jean-Baptiste, QC, Canada) supplemented with 10% fetal bovine serum (FBS, Wisent) and 1% antibiotics [100 U/mL penicillin and 100 μg/mL streptomycin (PS); Wisent]. Cells were grown at 37°C in 5% CO2 and 90% humidity and checked for mycoplasma contamination. Two days prior to experiments, cells were trypsinized (Wisent) and 35,000 cells were transfected with 1 μg of total DNA containing the appropriate expression vectors/biosensors. The total quantity of DNA was completed at 1 μg with salmon sperm DNA (Invitrogen, Waltham, MA, USA). Transfection was performed using the transfecting agent polyethylenimine 25 kD linear (PEI; Polysciences, Warrington, PA, USA) at a ratio of 3:1 PEI/DNA. Cells were then immediately plated onto poly-ornithine (Sigma-Aldrich) coated 96-well white culture plates (PerkinElmer, Waltham, MA, USA).
# Forty-eight hours post-transfection, cells were washed once with phosphate-buffered saline (PBS) then incubated 1 h at 37°C in Tyrode buffer (137 mM NaCI, 0.9 mM KCI, 1 mM MgCI2, 1 1.9 mM NaHCO3, 3.6 mM NaH2PO4, 25 mM HEPES, 5.5 mM Glucose, and 1 mM CaCI2, pH 7.4). Cells were then treated with the ligands and prior to measurement treated with the substrate (5 min with 2.5 μM Coelantarazine 400a). Bioluminescence resonance energy transfer (BRET) was then measured between RlucII (BRET energy donor) and rGFP (enhanced bystander ebBRET acceptor)–tagged proteins. BRET values were read for 1 s per well using a Mithras™ LB940 Multimode Microplate Reader (Berthold Technologies, Bad Wildbad, Germany) for concentration–response curves. ebBRET values were obtained by calculating the ratio of the light emitted by the energy acceptor over the light emitted by the energy donor (donor 410 ± 70 nm/acceptor 515 ± 20 nm). Data were collected using the MicroWin 2000 software (Berthold Technologies, Bad Wildbad, Germany). They were then fitted and analyzed in GraphPad Prism (v9.0, GraphPad Software, Inc., San Diego, CA, USA).
# A decrease in BRET indicates receptor loss from the plasma membrane. […] Data are expressed as raw BRET signal (Mean ± SEM) from five independent experiments.
# We set-up an enhanced bystander bioluminescence energy resonance transfer (ebBRET) assay by fusing RlucII at the NTSR1 C-tail and expressing this construct together with rGFP-CAAX in HEK293 cells (Figure 1A).
# NTSR1 = target: T2, NTSR1 (Mus musculus, UniProt O88319); test: Gq activation ebBRET (Gq EMTA, p63RhoGEF-RlucII / rGFP-CAAX) in HEK293 cells, untagged NTSR1; format: cell-based; conditions: mean ± SEM
# T2 construct: expressed in transfected cells; host or cells: HEK293 (HEK293SL)
# T2 sequence (O88319 whole entry): as above
# Description: (§1) The mouse coding sequence of NTSR1 was PCR amplified from pCMV6-mNTSR1 (Origene, Rockville, MD, USA) and subcloned upstream from the IRES feature with a STOP codon before IRES into pIRES (Invitrogen, Waltham, MA, USA) and pIRES-Venus vector previously described ([Hamdan et al., 2005]) resulting in expression of either untagged NTSR1 or NTSR1-Venus. […] The pIRES vector was used The rGFP-CAAX BRET and Gq GEMTA biosensors construct were generated as previously described ([Namkung et al., 2016]; [Avet et al., 2022]).
# (§2) HEK293 clonal cell line (HEK293SL cells), hereafter referred as HEK293 cells, were a gift from S. Laporte (McGill University, Montreal, Quebec, Canada) and previously described ([Namkung et al., 2016]). Cells were maintained in Dulbecco’s Modified Eagle Medium (DMEM, Wisent, Saint-Jean-Baptiste, QC, Canada) supplemented with 10% fetal bovine serum (FBS, Wisent) and 1% antibiotics [100 U/mL penicillin and 100 μg/mL streptomycin (PS); Wisent]. Cells were grown at 37°C in 5% CO2 and 90% humidity and checked for mycoplasma contamination. […] The total quantity of DNA was completed at 1 μg with salmon sperm DNA (Invitrogen, Waltham, MA, USA). […]
# (§3) Forty-eight hours post-transfection, cells were washed once with phosphate-buffered saline (PBS) then incubated 1 h at 37°C in Tyrode buffer (137 mM NaCI, 0.9 mM KCI, 1 mM MgCI2, 1 1.9 mM NaHCO3, 3.6 mM NaH2PO4, 25 mM HEPES, 5.5 mM Glucose, and 1 mM CaCI2, pH 7.4). […] Bioluminescence resonance energy transfer (BRET) was then measured between RlucII (BRET energy donor) and rGFP (enhanced bystander ebBRET acceptor)–tagged proteins. BRET values were read for 1 s per well using a Mithras™ LB940 Multimode Microplate Reader (Berthold Technologies, Bad Wildbad, Germany) for concentration–response curves. ebBRET values were obtained by calculating the ratio of the light emitted by the energy acceptor over the light emitted by the energy donor (donor 410 ± 70 nm/acceptor 515 ± 20 nm). […] They were then fitted and analyzed in GraphPad Prism (v9.0, GraphPad Software, Inc., San Diego, CA, USA). […]
# [1] = system: Ntsr1^Venus/Venus and Ntsr1^WT/WT mice; test: Locomotor activity in activity boxes after i.p. injection; format: in vivo, mouse
# Protocol: Locomotor activity was measured using Plexiglas activity boxes (20 × 20 × 20 cm) surrounded by horizontal and vertical infrared sensor beams (Versamax Omnitech Electronics, Columbus, OH, USA) during the light phase. The total numbers of animals used in locomotion experiments were n = 16 Ntsr1^Venus/Venus and n = 15 Ntsr1^WT/WT mice. Animals were habituated to the room in singly housed cages with home bedding for 1 h, before being injected with either 0.9% saline, 0.2, 0.5, 1, 5 mg/kg, PD149163, dissolved in 0.9% saline, and returned to their home cages for 30 min. Then mice were placed in horizontally opposed chambers, and horizontal movement (cm) was measured over the course of 2 h, in bins of 10 min.
# Having established evidence supporting functional NTSR1-Venus receptor signaling (Gq/Ca2+) and receptor endocytosis we next evaluated behavioral responses in these animals. […] First, when animals were not yet habituated to the activity chambers and only received saline injections, we observed somewhat higher activity counts for Ntsr1^Venus/Venus compared to Ntsr1^WT/WT animals (Supplementary Figure 1). […] A significant difference at 0.2 mg/kg and a trend that was not significant at higher doses (0.5, 1, or 5 mg/kg) was observed between Ntsr1^Venus/Venus and Ntsr1^WT/WT animals (Figure 2I). […]
# NTSR1-Venus [2] = target: T3, NTSR1-Venus (Mus musculus, UniProt O88319); test: NTSR1-Venus endocytosis in primary hippocampal neurons (Venus/EEA1 colocalization; live confocal imaging); format: cell-based
# T3 construct: monitoring endogenous NTSR1-Venus receptor endocytosis could differentiate NTSR1 agonists; endogenous in cells; host or cells: primary hippocampal neurons from homozygous NTSR1-Venus knock-in mice (C57BL/6N background)
# T3 sequence (O88319 whole entry): as above
# Protocol: To isolate hippocampal neurons, P0 pups were removed from the cage of NTSR1-Venus homozygous knock-in breeding pairs. […] Neurons were plated on Poly-D-Lysine (Sigma) coated surfaces at 100,000 cells per 12 mm coverslip (NeuVitro, Camas, WA, USA) in a 24-well plate for immunostaining or 50,000 cells per well of an 8 well chamber slide (Ibidi, Grafelfing, Germany) for calcium measurements. Plating media [Neurobasal A (Gibco, Grand Island, NY, USA), 1% FBS (Fisher Scientific), 2% B-27 (Gibco, Grand Island, NY, USA), 0.5 mM GlutaMAX (Gibco, Grand Island, NY, USA), and 1x Penicillin/Streptomycin (Invitrogen, Waltham, MA, USA)] was exchanged 1 h after plating to maintenance media (Neurobasal A, 2% B-27, 0.5 mM GlutaMAX, and 1x Penicillin/Streptomycin).
# NTSR1-Venus [3] = target: T3, NTSR1-Venus; test: Gq activation ebBRET (Gq EMTA, p63RhoGEF-RlucII / rGFP-CAAX) in HEK293 cells, Venus tagged NTSR1; format: cell-based; conditions: mean ± SEM
# Description: as §1, §2, §3
compound,measurement,setting,value
"CCOC(=O)[C@H](CC(C)C)NC(=O)[C@@H](NC(=O)[C@H](Cc1c[nH]c2ccccc12)NC(=O)[C@@H]1CCCN1C(=O)[C@H](CCCCN)NC[C@@H](N)CCCCN)C(C)(C)C [PD149163, PD149163 tetrahydrochloride hydrate] (H-[X1]PW[Tle]L-OEt; N-terminus and C-terminus assumed)",EC50,"NTSR1-RlucII; NTSR1-RlucII, read-out: potency to induce NTSR1 internalization",3.07e-07 M
same,"Efficacy (Raw BRET), NTSR1-RlucII internalization","NTSR1-RlucII; decrease in BRET = receptor loss from membrane, mean ± SEM",−0.245 Raw BRET and −0.245 ± 0.008 Raw BRET
same,EC50,"NTSR1-RlucII; given as LogEC50 (negative sign), mean ± SEM, five independent experiments, read-out: Potency [LogEC50 (M)], NTSR1-RlucII internalization (converted)",3.07e-07 M
same,EC50,"NTSR1; given as LogEC50 (negative sign), read-out: Potency [LogEC50 (M)], Gq activation, NTSR1 (converted)",2.81e-08 M
same,"Efficacy (Raw BRET), Gq activation, NTSR1",NTSR1,0.220 Raw BRET and 0.220 ± 0.013 Raw BRET
same,hypolocomotion in Ntsr1^Venus/Venus and Ntsr1^WT/WT animals,"[1]; 0.5 mg/kg i.p., measured 30 min after injection",induced NTSR1 mediated hypolocomotion to a similar extent
same,total distance traveled over 2 h as compared to saline animals,"[1]; i.p. 0.2, 0.5, 1, 5 mg/kg, both genotypes",dose-dependent decrease
same,time course of NTSR1-Venus in early endosomes,"NTSR1-Venus [2]; 1 μM, 5 to 60 min",remained stable
same,"NTSR1-Venus internalization, live confocal imaging","NTSR1-Venus [2]; 1 μM, 20 min live imaging of hippocampal neurons",robust internalization of the receptor
same,"percentage of endosomes containing NTSR1 after 60 min, PD149163 vs neurotensin","NTSR1-Venus [2]; 1 μM, 60 min",significantly higher percentage
same,NTSR1-Venus redistribution to endosomes (% EEA1 vesicles),"NTSR1-Venus [2]; 1 μM, within the first 5 min of agonist treatment",92.7% ± 6.9
same,EC50,"NTSR1-Venus [2]; Ntsr1^Venus/Venus hippocampal neurons, 5 min of agonist treatment, read-out: EC50, NTSR1-Venus endocytosis (ratio of Venus and EEA1 positive to total EEA1 positive endosomes)",465 nM
same,EC50,"NTSR1-Venus [3]; given as LogEC50 (negative sign), read-out: Potency [LogEC50 (M)], Gq activation, NTSR1-Venus (converted)",3.05e-08 M
same,"Efficacy (Raw BRET), Gq activation, NTSR1-Venus",NTSR1-Venus [3],0.476 Raw BRET and 0.476 ± 0.009 Raw BRET
